Source: patent US20250205344A1, “2,4-DIOXOTETRAHYDROPYRIMIDINYL DERATIVES AS DEGRONS IN PROTACS” (GLAXOSMITHKLINE INTELLECTUAL PROPERTY DEVELOPMENT LIMITED, priority 2022, published 2025)
Counter-ions that a name gives are not always drawn.

Target: T1, Androgen Receptor (Homo sapiens, UniProt P10275, T878A)
T1 construct: the AR gene was modified, using CRISPR/Cas9 editing, so the expressed AR protein included an 11 amino acid HiBiT tag; endogenous in cells; host or cells: clonal LnCaP-derived line, AR gene edited by CRISPR/Cas9
Test: Androgen Receptor Degradation Assay (Nano-Glo HiBiT)
Format: cell-based
Conditions: LNCaP, 18 h, HiBiT-tagged AR in human LnCaP cells, read-out: mean asymptote max
Method in brief: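 LnCaP cells with CRISPR-knocked-in N-terminal HiBiT-tagged AR (10,000/well) treated 18 h at 37 °C with PROTACs over 11 threefold concentrations; lytic HiBiT luminescence normalised to DMSO (0%) and cell-free (100%) controls. Relative DC50 = 4-parameter fit inflection; absolute DC50 = 50% degradation interpolation; Dmax = maximum observed degradation.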

T1 sequence (P10275 whole entry T878A): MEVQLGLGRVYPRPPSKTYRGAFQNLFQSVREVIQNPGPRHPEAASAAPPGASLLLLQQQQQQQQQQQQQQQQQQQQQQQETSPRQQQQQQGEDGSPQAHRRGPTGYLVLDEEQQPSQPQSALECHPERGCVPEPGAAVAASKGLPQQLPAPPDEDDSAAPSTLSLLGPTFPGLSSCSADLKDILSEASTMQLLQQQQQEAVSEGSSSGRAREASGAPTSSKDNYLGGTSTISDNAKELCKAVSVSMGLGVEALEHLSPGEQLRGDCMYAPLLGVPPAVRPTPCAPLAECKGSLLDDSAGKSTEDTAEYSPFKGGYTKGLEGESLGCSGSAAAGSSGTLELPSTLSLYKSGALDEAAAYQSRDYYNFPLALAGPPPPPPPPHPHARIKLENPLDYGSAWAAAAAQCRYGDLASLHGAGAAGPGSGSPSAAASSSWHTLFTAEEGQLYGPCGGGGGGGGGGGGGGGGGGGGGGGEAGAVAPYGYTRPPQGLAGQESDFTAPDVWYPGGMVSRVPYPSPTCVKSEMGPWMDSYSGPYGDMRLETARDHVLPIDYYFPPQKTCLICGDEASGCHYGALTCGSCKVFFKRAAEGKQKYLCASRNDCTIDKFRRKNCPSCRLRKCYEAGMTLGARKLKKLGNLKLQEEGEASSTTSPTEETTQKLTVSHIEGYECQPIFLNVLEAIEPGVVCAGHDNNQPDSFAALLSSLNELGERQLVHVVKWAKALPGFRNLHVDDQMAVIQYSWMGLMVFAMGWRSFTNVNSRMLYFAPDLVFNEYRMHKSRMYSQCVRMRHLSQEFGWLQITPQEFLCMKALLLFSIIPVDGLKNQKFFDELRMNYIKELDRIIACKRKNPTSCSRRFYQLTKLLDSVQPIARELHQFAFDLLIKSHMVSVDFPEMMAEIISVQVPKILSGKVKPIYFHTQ
T1 sequence (Q96SW2 whole entry partner): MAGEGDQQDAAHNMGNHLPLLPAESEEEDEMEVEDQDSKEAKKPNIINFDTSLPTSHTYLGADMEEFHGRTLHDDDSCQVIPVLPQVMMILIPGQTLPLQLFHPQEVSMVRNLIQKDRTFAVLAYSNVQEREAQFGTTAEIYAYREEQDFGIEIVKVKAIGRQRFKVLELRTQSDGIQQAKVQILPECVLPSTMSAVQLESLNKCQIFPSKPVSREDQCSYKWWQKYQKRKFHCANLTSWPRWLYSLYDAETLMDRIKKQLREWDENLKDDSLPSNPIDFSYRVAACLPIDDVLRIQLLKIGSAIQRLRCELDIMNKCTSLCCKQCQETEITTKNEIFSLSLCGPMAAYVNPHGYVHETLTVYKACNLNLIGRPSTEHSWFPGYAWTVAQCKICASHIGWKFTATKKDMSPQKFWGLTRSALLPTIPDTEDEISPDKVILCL
T1 sequence (Q16531 whole entry partner): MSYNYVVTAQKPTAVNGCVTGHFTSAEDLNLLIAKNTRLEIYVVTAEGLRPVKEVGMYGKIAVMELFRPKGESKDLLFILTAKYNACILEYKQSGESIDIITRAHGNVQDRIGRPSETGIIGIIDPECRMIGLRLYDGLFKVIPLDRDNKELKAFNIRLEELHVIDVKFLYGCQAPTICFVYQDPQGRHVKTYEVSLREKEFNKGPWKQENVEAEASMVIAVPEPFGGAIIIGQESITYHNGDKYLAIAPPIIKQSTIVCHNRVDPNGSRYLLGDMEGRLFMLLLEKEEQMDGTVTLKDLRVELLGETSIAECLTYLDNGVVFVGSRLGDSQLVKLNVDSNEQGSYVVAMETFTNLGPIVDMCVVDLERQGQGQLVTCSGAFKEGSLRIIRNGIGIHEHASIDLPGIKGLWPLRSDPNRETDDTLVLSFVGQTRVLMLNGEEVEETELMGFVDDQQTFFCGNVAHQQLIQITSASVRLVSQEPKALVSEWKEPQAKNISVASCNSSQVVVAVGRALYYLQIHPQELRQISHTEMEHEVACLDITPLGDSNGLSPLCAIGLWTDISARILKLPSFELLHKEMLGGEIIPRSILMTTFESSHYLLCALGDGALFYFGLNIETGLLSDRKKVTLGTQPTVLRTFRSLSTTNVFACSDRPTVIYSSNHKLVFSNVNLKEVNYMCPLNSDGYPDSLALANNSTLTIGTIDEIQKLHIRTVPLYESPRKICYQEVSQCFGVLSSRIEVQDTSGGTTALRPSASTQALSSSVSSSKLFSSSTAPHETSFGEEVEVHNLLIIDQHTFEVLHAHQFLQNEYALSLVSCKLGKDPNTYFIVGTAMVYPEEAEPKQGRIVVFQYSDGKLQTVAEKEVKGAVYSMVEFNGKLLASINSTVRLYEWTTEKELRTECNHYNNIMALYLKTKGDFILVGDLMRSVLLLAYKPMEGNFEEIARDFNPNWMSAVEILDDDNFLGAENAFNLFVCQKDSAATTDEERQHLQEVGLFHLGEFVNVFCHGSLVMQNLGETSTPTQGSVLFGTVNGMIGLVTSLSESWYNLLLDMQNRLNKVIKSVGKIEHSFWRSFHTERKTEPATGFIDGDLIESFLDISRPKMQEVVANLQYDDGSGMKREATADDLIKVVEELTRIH

For `N#Cc1ccc(O[C@H]2CC[C@H](NC(=O)c3ccc(N4CCC(CN5CCC(n6ncc7c(N8CCC(=O)NC8=O)c(F)ccc76)CC5)CC4)nn3)CC2)cc1Cl` [EAR140, N-((1r,4r)-4-(3-Chloro-4-cyanophenoxy)cyclohexyl)-6-(4-((4-(4-(2,4-dioxotetrahydropyrimidin-1(2H)-yl)-5-fluoro-1H-indazol-1-yl)piperidin-1-yl)methyl)piperidin-1-yl)pyridazine-3-carboxamide, hydrochloride], the Dmax was ≥ 50%.

`N#Cc1ccc(O[C@H]2CC[C@H](NC(=O)c3ccc(N4CCC(CN5CCC(n6ccc7c(-n8ccc(=O)[nH]c8=O)cccc76)CC5)CC4)nn3)CC2)cc1Cl` [EAR141, N-((1r,4r)-4-(3-Chloro-4-cyanophenoxy)cyclohexyl)-6-(4-((4-(4-(2,4-dioxo-3,4-dihydropyrimidin-1(2H)-yl)-1H-indol-1-yl)piperidin-1-yl)methyl)piperidin-1-yl)pyridazine-3-carboxamide, hydrochloride] was tested, and the Dmax was ≥ 50%.

In the case of `N#Cc1ccc(O[C@H]2CC[C@H](NC(=O)c3ccc(N4CCC[C@H](CN5CCC(n6ccc7c(N8CCC(=O)NC8=O)cccc76)CC5)C4)nn3)CC2)cc1Cl` [EAR142, N-((1r,4R)-4-(3-chloro-4-cyanophenoxy)cyclohexyl)-6-((R)-3-((4-(4-(2,4-dioxotetrahydropyrimidin-1(2H)-yl)-1H-indol-1-yl)piperidin-1-yl)methyl)piperidin-1-yl)pyridazine-3-carboxamide], the Dmax was ≥ 50%.

With `N#Cc1ccc(O[C@H]2CC[C@H](NC(=O)c3ccc(N4CCC[C@@H](CN5CCC(n6ccc7c(N8CCC(=O)NC8=O)cccc76)CC5)C4)nn3)CC2)cc1Cl` [EAR143, N-((1r,4R)-4-(3-chloro-4-cyanophenoxy)cyclohexyl)-6-((S)-3-((4-(4-(2,4-dioxotetrahydropyrimidin-1(2H)-yl)-1H-indol-1-yl)piperidin-1-yl)methyl)piperidin-1-yl)pyridazine-3-carboxamide] the Dmax was ≥ 50%.

In the case of `N#Cc1ccc(O[C@H]2CC[C@H](NC(=O)c3ccc(N4CCC(CN5CC[C@@H](n6ccc7c(N8CCC(=O)NC8=O)cccc76)[C@H](F)C5)CC4)nn3)CC2)cc1Cl` [EAR144, N-((1r,4r)-4-(3-Chloro-4-cyanophenoxy)cyclohexyl)-6-(4-(((3R,4R)-4-(4-(2,4-dioxotetrahydropyrimidin-1(2H)-yl)-1H-indol-1-yl)-3-fluoropiperidin-1-yl)methyl)piperidin-1-yl)pyridazine-3-carboxamide, hydrochloride], the Dmax was ≥ 50%.

In the case of `N#Cc1ccc(O[C@H]2CC[C@H](NC(=O)c3ccc(N4CCC(CN5CC[C@H](n6ccc7c(N8CCC(=O)NC8=O)cccc76)[C@@H](F)C5)CC4)nn3)CC2)cc1Cl` [EAR145, N-((1r,4r)-4-(3-Chloro-4-cyanophenoxy)cyclohexyl)-6-(4-(((3S,4S)-4-(4-(2,4-dioxotetrahydropyrimidin-1(2H)-yl)-1H-indol-1-yl)-3-fluoropiperidin-1-yl)methyl)piperidin-1-yl)pyridazine-3-carboxamide, hydrochloride], the Dmax was ≥ 50%.

For `C[C@@H]1CN(c2ccc(C#N)c(Cl)c2)[C@@H](C)CN1C(=O)c1ccc(N2CCC(CN3CCC(n4ncc5c(N6CCC(=O)NC6=O)cncc54)CC3)CC2)nn1` [EAR146, 2-Chloro-4-((2S,5R)-4-(6-(4-((4-(4-(2,4-dioxotetrahydropyrimidin-1(2H)-yl)-1H-pyrazolo[3,4-c]pyridin-1-yl)piperidin-1-yl)methyl)piperidin-1-yl)pyridazine-3-carbonyl)-2,5-dimethylpiperazin-1-yl)benzonitrile], the Dmax was ≥ 50%.

For `C[C@@H]1CN(c2ccc(C#N)c(Cl)c2)[C@@H](C)CN1C(=O)c1cnc(N2CCC(CN3CCC(n4ccc5c(N6CCC(=O)NC6=O)cncc54)CC3)CC2)cn1` [EAR147, 2-Chloro-4-((2S,5R)-4-(5-(4-((4-(4-(2,4-dioxotetrahydropyrimidin-1(2H)-yl)-1H-pyrrolo[2,3-c]pyridin-1-yl)piperidin-1-yl)methyl)piperidin-1-yl)pyrazine-2-carbonyl)-2,5-dimethylpiperazin-1-yl)benzonitrile], the Dmax was ≥ 50%.

In the case of `N#Cc1ccc(O[C@H]2CC[C@H](NC(=O)c3ccc(N4CCC(CN5CCC(n6ccc7c(N8CCC(=O)NC8=O)nccc76)CC5)CC4)nn3)CC2)cc1Cl` [EAR148, N-((1r,4r)-4-(3-Chloro-4-cyanophenoxy)cyclohexyl)-6-(4-((4-(4-(2,4-dioxotetrahydropyrimidin-1(2H)-yl)-1H-pyrrolo[3,2-c]pyridin-1-yl)piperidin-1-yl)methyl)piperidin-1-yl)pyridazine-3-carboxamide], the Dmax was ≥ 50%.

`N#Cc1ccc(O[C@H]2CC[C@H](NC(=O)c3ccc(N4CCC(CN5CCC(n6ccc7c(N8CCC(=O)NC8=O)ccnc76)CC5)CC4)nn3)CC2)cc1Cl` [EAR149, N-((1r,4r)-4-(3-Chloro-4-cyanophenoxy)cyclohexyl)-6-(4-((4-(4-(2,4-dioxotetrahydropyrimidin-1(2H)-yl)-1H-pyrrolo[2,3-b]pyridin-1-yl)piperidin-1-yl)methyl)piperidin-1-yl)pyridazine-3-carboxamide] was tested, and the Dmax was ≥ 50%.

In the case of `C[C@@H]1CN(c2ccc(C#N)c(Cl)c2)[C@@H](C)CN1C(=O)c1cnc(N2CCC(CN3CCC(n4ncc5c(N6CCC(=O)NC6=O)cncc54)CC3)CC2)cn1` [EAR150, 2-Chloro-4-((2S,5R)-4-(5-(4-((4-(4-(2,4-dioxotetrahydropyrimidin-1(2H)-yl)-1H-pyrazolo[3,4-c]pyridin-1-yl)piperidin-1-yl)methyl)piperidin-1-yl)pyrazine-2-carbonyl)-2,5-dimethylpiperazin-1-yl)benzonitrile], the Dmax was ≥ 50%.

`CN(CCCN1CCC(n2ncc3c(N4CCC(=O)NC4=O)cccc32)CC1)c1ccc(C(=O)N[C@H]2CC[C@H](Oc3ccc(C#N)c(Cl)c3)CC2)nn1` [EAR151, N-((1r,4r)-4-(3-Chloro-4-cyanophenoxy)cyclohexyl)-6-((3-(4-(4-(2,4-dioxotetrahydropyrimidin-1(2H)-yl)-1H-indazol-1-yl)piperidin-1-yl)propyl)(methyl)amino)pyridazine-3-carboxamide, formic acid salt] was tested, and the Dmax was ≥ 50%.

`N#Cc1ccc(O[C@H]2CC[C@H](NC(=O)c3ccc(N4CCC(CN5CCC(n6ncc7c(N8CCC(=O)NC8=O)cccc76)CC5)C4)nn3)CC2)cc1Cl` (stereo partly shown) [EAR152, N-((1r,4r)-4-(3-Chloro-4-cyanophenoxy)cyclohexyl)-6-(3-((4-(4-(2,4-dioxotetrahydropyrimidin-1(2H)-yl)-1H-indazol-1-yl)piperidin-1-yl)methyl)pyrrolidin-1-yl)pyridazine-3-carboxamide, formic acid salt] was tested, and the Dmax was ≥ 50%.

`N#Cc1ccc(O[C@H]2CC[C@H](NC(=O)c3ccc(N4CCC[C@@H](CN5CCC(n6ncc7c(N8CCC(=O)NC8=O)cccc76)CC5)C4)nn3)CC2)cc1Cl` [EAR153, N-((1r,4S)-4-(3-Chloro-4-cyanophenoxy)cyclohexyl)-6-((S)-3-((4-(4-(2,4-dioxotetrahydropyrimidin-1(2H)-yl)-1H-indazol-1-yl)piperidin-1-yl)methyl)piperidin-1-yl)pyridazine-3-carboxamide, formic acid salt] was tested, and the Dmax was ≥ 50%.

With `N#Cc1ccc(O[C@H]2CC[C@H](NC(=O)c3ccc(N4CC(CN5CCC(n6ncc7c(N8CCC(=O)NC8=O)cccc76)CC5)C4)nn3)CC2)cc1Cl` [EAR154, N-((1r,4r)-4-(3-Chloro-4-cyanophenoxy)cyclohexyl)-6-(3-((4-(4-(2,4-dioxotetrahydropyrimidin-1(2H)-yl)-1H-indazol-1-yl)piperidin-1-yl)methyl)azetidin-1-yl)pyridazine-3-carboxamide, formic acid salt] the Dmax was ≥ 50%.

`N#Cc1ccc(O[C@H]2CC[C@H](NC(=O)c3ccc(N4CCC(CN5CC[C@@H](n6ccc7c(N8CCC(=O)NC8=O)cccc76)[C@@H](F)C5)CC4)nn3)CC2)cc1Cl` [EAR155, N-((1r,4r)-4-(3-Chloro-4-cyanophenoxy)cyclohexyl)-6-(4-(((3S,4R)-4-(4-(2,4-dioxotetrahydropyrimidin-1(2H)-yl)-1H-indol-1-yl)-3-fluoropiperidin-1-yl)methyl)piperidin-1-yl)pyridazine-3-carboxamide, hydrochloride] was tested, and the Dmax was ≥ 50%.

With `N#Cc1ccc(O[C@H]2CC[C@H](NC(=O)c3ccc(N4CCC(CN5CC[C@H](n6ccc7c(N8CCC(=O)NC8=O)cccc76)[C@H](F)C5)CC4)nn3)CC2)cc1Cl` [EAR156, N-((1r,4r)-4-(3-Chloro-4-cyanophenoxy)cyclohexyl)-6-(4-(((3R,4S)-4-(4-(2,4-dioxotetrahydropyrimidin-1(2H)-yl)-1H-indol-1-yl)-3-fluoropiperidin-1-yl)methyl)piperidin-1-yl)pyridazine-3-carboxamide, hydrochloride] the Dmax was ≥ 50%.

In the case of `CN(c1ccc(C#N)c(Cl)c1)[C@H]1CC[C@H](NC(=O)c2ccc(N3CCC(CN4CCC(n5ccc6c(N7CCC(=O)NC7=O)cccc65)CC4)CC3)nn2)CC1` [EAR157, N-((1r,4r)-4-((3-Chloro-4-cyanophenyl)(methyl)amino)cyclohexyl)-6-(4-((4-(4-(2,4-dioxotetrahydropyrimidin-1(2H)-yl)-1H-indol-1-yl)piperidin-1-yl)methyl)piperidin-1-yl)pyridazine-3-carboxamide], the Dmax was ≥ 50%.

With `N#Cc1ccc(O[C@H]2CC[C@H](NC(=O)c3ccc(N4CCN(CC(=O)N5CCC(n6ncc7c(N8CCC(=O)NC8=O)cccc76)CC5)CC4)nn3)CC2)cc1Cl` [EAR158, N-((1r,4r)-4-(3-Chloro-4-cyanophenoxy)cyclohexyl)-6-(4-(2-(4-(4-(2,4-dioxotetrahydropyrimidin-1(2H)-yl)-1H-indazol-1-yl)piperidin-1-yl)-2-oxoethyl)piperazin-1-yl)pyridazine-3-carboxamide] the Dmax was ≥ 50%.
